Activity calls are given as the source filed them. The calls are words filed in the database; no cut-off is given here.
Columns and labels:
MIA PaCa-2 [1] = assay: Antiproliferative activity against human MIAPaCa2 cells after 72 hrs by MTT assay; assay type: functional, cell-based; conditions: MIA PaCa-2, 72 h; for CC50: read-out: LC50 (the source's name)
MIA PaCa-2 [2] = assay: Cell cycle arrest in human MIAPaCa2 cells assessed as accumulation in G2/M phase at 5 uM after 24 hrs using propidium iodide staining by flow cytometry relative to control; assay type: functional
SW-620 [3] = assay: Cell cycle arrest in human SW620 cells assessed as accumulation in S phase at 5 uM after 48 hrs using propidium iodide staining by flow cytometry relative to control; assay type: functional
SK-BR-3 [4] = assay: Cell cycle arrest in human SKBR3 cells assessed as accumulation in S phase at 10 uM after 24 hrs using propidium iodide staining by flow cytometry relative to control; assay type: functional
MIA PaCa-2 [5] = assay: Cell cycle arrest in human MIAPaCa2 cells assessed as accumulation in S phase at 10 uM after 24 hrs using propidium iodide staining by flow cytometry relative to control; assay type: functional
HeLa [6] = assay: Cell cycle arrest in human HeLa cells assessed as accumulation in S phase at 10 uM after 24 hrs using propidium iodide staining by flow cytometry relative to control; assay type: functional
HeLa [7] = assay: Cell cycle arrest in human HeLa cells assessed as accumulation in sub-G1 phase at 5 uM after 48 hrs using propidium iodide staining by flow cytometry relative to control; assay type: functional
SW-620 [8] = assay: Cell cycle arrest in human SW620 cells assessed as accumulation in G1 phase at 5 uM after 24 hrs using propidium iodide staining by flow cytometry relative to control; assay type: functional
HeLa [9] = assay: Cell cycle arrest in human HeLa cells assessed as accumulation in G1 phase at 5 uM after 24 hrs using propidium iodide staining by flow cytometry relative to control; assay type: functional
DNA [10] = assay: Binding affinity to calf thymus DNA assessed as change in melting temperature at 0.25 drug/DNA ratio by spectrophotometer analysis; assay type: nucleic-acid assay; conditions: Bos taurus
MIA PaCa-2 [11] = assay: Cell cycle arrest in human MIAPaCa2 cells assessed as accumulation in G1 phase at 10 uM after 24 hrs using propidium iodide staining by flow cytometry relative to control; assay type: functional
[12] = Binding affinity to DNA (unknown origin) after 15 mins by DNase I footprinting assay
SW-620 [13] = assay: Induction of apoptosis in human SW620 cells at 10 uM after 24 hrs using propidium iodide/Annexin-V staining by flow cytometry relative to control; assay type: functional
SK-BR-3 [14] = assay: Cell cycle arrest in human SKBR3 cells assessed as accumulation in G1 phase at 5 uM after 24 hrs using propidium iodide staining by flow cytometry relative to control; assay type: functional
SW-620 [15] = assay: Cell cycle arrest in human SW620 cells assessed as accumulation in G2/M phase at 5 uM after 48 hrs using propidium iodide staining by flow cytometry relative to control; assay type: functional
MIA PaCa-2 [16] = assay: Cell cycle arrest in human MIAPaCa2 cells assessed as accumulation in G1 phase at 5 uM after 24 hrs using propidium iodide staining by flow cytometry relative to control; assay type: functional
MIA PaCa-2 [17] = assay: Cell cycle arrest in human MIAPaCa2 cells assessed as accumulation in G1 phase at 10 uM after 48 hrs using propidium iodide staining by flow cytometry relative to control; assay type: functional
SW-620 [18] = assay: Cell cycle arrest in human SW620 cells assessed as accumulation in G2/M phase at 10 uM after 48 hrs using propidium iodide staining by flow cytometry relative to control; assay type: functional
SW-620 [19] = assay: Cell cycle arrest in human SW620 cells assessed as accumulation in S phase at 10 uM after 24 hrs using propidium iodide staining by flow cytometry relative to control; assay type: functional
DNA [20] = assay: Binding affinity to calf thymus DNA at 50 uM by Circular dichroism spectra analysis; assay type: nucleic-acid assay; conditions: Bos taurus
SK-BR-3 [21] = assay: Cell cycle arrest in human SKBR3 cells assessed as accumulation in S phase at 5 uM after 48 hrs using propidium iodide staining by flow cytometry relative to control; assay type: functional
SW-620 [22] = assay: Cell cycle arrest in human SW620 cells assessed as accumulation in sub-G1 phase at 10 uM after 24 hrs using propidium iodide staining by flow cytometry relative to control; assay type: functional
MIA PaCa-2 [23] = assay: Cell cycle arrest in human MIAPaCa2 cells assessed as accumulation in sub-G1 phase at 5 uM after 24 hrs using propidium iodide staining by flow cytometry relative to control; assay type: functional
DNA [24] = assay: Binding affinity to calf thymus DNA assessed as hypochromic effect at 20 uM by UV/Vis spectra analysis; assay type: nucleic-acid assay; conditions: Bos taurus
SW-620 [25] = assay: Cell cycle arrest in human SW620 cells assessed as accumulation in G2/M phase at 10 uM after 24 hrs using propidium iodide staining by flow cytometry relative to control; assay type: functional
MIA PaCa-2 [26] = assay: Cell cycle arrest in human MIAPaCa2 cells assessed as accumulation in sub-G1 phase at 5 uM after 48 hrs using propidium iodide staining by flow cytometry relative to control; assay type: functional
SK-BR-3 [27] = assay: Cell cycle arrest in human SKBR3 cells assessed as accumulation in sub-G1 phase at 5 uM after 24 hrs using propidium iodide staining by flow cytometry relative to control; assay type: functional
SW-620 [28] = assay: Cell cycle arrest in human SW620 cells assessed as accumulation in G1 phase at 10 uM after 48 hrs using propidium iodide staining by flow cytometry relative to control; assay type: functional
HeLa [29] = assay: Cell cycle arrest in human HeLa cells assessed as accumulation in G1 phase at 10 uM after 48 hrs using propidium iodide staining by flow cytometry relative to control; assay type: functional
HeLa [30] = assay: Cell cycle arrest in human HeLa cells assessed as accumulation in S phase at 5 uM after 24 hrs using propidium iodide staining by flow cytometry relative to control; assay type: functional
MIA PaCa-2 [31] = assay: Induction of apoptosis in human MIAPaCa2 cells at 10 uM after 48 hrs using propidium iodide/Annexin-V staining by flow cytometry relative to control; assay type: functional
MIA PaCa-2 [32] = assay: Induction of apoptosis in human MIAPaCa2 cells at 10 uM after 24 hrs using propidium iodide/Annexin-V staining by flow cytometry relative to control; assay type: functional

Structure (SMILES)	IC50 (MIA PaCa-2 [1]) [µM]	CC50 (MIA PaCa-2 [1]) [µM]	Activity (MIA PaCa-2 [2]) [%]	Activity (SK-BR-3 [4]) [%]	Activity (MIA PaCa-2 [5]) [%]	Activity (HeLa [6]) [%]	Activity (HeLa [7]) [%]	Activity (HeLa [9]) [%]	ΔTm (DNA [10]) [°C]	Activity (MIA PaCa-2 [11]) [%]	Activity (SK-BR-3 [14]) [%]	Activity (MIA PaCa-2 [16]) [%]	Activity (MIA PaCa-2 [17]) [%]	Activity (DNA [20])	Activity (SK-BR-3 [21]) [%]	Activity (MIA PaCa-2 [23]) [%]	Activity (DNA [24])	Activity (MIA PaCa-2 [26]) [%]	Activity (SK-BR-3 [27]) [%]	Activity (HeLa [29]) [%]	further results
Cl.Cl.c1cc(-c2nc3ccc(C4=NCCN4)cc3s2)cc(-c2nc3ccc(C4=NCCN4)cc3s2)c1	0.26	1.49	10.9	62.1	49.1	66.3	13.3	39.3	12.8	41.6	34.5	60.2	42.8	Active	44	17.7	Active	20.4	33.3	20.4	Activity (SW-620 [3]): 48.6%; Activity (SW-620 [8]): 45.3%; Activity [12]: Active; Activity (SW-620 [13]): 8%; Activity (SW-620 [15]): 14.7%; Activity (SW-620 [18]): 6.8%; Activity (SW-620 [19]): 65.6%; Activity (SW-620 [22]): 45.3%; Activity (SW-620 [25]): 23.9%; Activity (SW-620 [28]): 23.7%; Activity (HeLa [30]): 38.4%
Cl.Cl.c1cc2nc(-c3ccc(-c4nc5ccc(C6=NCCN6)cc5s4)cc3)sc2cc1C1=NCCN1	3.54	36.7	5.8	39.1	40.1	58.7	22.7	42	3.9	40.9	58.9	35.2	40.6	inactive	32.6	34.4	Active	35.7	15.8	42.3	Activity (MIA PaCa-2 [31]): 4%; Activity (MIA PaCa-2 [32]): 5%; Activity (HeLa [30]): 44.5%
